This note sets out measurements from patent US11654199B2 (BOLT BIOTHERAPEUTICS, INC., priority 2019, dated 2023).

Molecules are shown by their SMILES. pEC50: −log10 of the molar value.

Test [1] has as its target T1, human TLR7 (Homo sapiens, UniProt Q9NYK1).
T1 construct: host or cells: HEK293 reporter cells
T1 sequence (Q9NYK1 27-1049): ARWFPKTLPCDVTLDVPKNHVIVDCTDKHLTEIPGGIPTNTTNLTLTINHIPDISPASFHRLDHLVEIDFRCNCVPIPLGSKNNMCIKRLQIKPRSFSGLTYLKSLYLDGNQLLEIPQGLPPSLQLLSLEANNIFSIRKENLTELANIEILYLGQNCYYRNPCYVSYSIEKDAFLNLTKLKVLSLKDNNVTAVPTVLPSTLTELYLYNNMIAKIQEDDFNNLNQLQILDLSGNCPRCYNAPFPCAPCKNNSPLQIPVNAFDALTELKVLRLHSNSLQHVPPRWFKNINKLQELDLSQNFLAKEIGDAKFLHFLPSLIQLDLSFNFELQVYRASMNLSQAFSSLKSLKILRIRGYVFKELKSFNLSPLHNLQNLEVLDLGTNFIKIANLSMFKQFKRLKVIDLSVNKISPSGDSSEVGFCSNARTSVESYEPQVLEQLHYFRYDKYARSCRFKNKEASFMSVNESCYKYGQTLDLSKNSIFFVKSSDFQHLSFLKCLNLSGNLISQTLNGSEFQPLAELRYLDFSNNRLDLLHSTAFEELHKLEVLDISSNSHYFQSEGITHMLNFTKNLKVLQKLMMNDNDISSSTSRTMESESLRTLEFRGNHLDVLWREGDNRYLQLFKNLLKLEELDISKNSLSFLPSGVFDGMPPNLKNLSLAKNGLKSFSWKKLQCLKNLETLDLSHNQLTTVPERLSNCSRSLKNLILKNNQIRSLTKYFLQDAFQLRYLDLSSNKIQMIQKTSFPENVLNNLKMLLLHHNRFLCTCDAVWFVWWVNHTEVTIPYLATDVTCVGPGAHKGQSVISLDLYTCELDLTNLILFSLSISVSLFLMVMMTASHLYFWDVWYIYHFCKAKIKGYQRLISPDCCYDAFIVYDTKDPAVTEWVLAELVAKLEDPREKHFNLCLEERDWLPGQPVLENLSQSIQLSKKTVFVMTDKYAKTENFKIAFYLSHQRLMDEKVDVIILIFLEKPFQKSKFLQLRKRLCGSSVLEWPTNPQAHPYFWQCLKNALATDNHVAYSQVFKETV
Kind of test: HEK293 NFKB reporter assay, human TLR7. The test is classed as cell-based. The note with it: HEK293 NFKB reporter cells expressing human TLR7; read-out: HEK293 hTLR7 EC50. In a few lines:
(§1)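 HEK293 NF-κB reporter cells expressing human TLR7 or TLR8 were seeded at 4×10^4 cells/well in HEK detection medium containing the stimulatory molecules. Reporter activity was read by absorbance at 620-655 nm.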
In general terms: In a reporter assay the amount or activity of a reporter protein is the signal.

In test [2] the target is T2, human TLR8 (Homo sapiens, UniProt Q9NR97).
T2 construct: host or cells: HEK293 reporter cells
T2 sequence (Q9NR97 27-1041): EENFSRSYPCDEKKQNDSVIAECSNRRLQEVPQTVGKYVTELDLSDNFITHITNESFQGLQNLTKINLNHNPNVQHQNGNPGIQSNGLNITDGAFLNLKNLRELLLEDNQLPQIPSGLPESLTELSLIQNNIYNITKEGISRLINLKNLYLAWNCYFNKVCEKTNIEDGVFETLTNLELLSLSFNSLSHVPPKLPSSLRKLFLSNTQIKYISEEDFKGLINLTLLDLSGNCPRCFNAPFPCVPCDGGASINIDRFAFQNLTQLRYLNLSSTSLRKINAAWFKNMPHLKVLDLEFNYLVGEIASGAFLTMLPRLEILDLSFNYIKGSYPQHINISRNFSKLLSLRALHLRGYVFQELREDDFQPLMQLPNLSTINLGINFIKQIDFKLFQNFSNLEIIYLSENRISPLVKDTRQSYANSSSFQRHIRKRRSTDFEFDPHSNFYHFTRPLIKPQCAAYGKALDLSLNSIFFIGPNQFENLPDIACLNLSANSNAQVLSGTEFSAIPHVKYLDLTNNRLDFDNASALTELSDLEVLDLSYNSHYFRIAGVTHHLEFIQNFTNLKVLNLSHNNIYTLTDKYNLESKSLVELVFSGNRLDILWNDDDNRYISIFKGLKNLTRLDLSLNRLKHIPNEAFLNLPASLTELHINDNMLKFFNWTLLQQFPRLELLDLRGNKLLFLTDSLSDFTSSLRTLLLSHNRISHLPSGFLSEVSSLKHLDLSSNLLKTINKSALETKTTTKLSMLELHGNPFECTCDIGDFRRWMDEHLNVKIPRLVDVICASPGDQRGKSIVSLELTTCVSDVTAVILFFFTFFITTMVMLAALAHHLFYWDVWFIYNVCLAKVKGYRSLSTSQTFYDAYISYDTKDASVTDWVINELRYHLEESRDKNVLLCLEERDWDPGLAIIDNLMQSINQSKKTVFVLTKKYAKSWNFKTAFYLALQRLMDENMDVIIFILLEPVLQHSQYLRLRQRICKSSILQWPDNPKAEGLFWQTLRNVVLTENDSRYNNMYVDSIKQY
Kind of test: HEK293 NFKB reporter assay, human TLR8. The test is classed as cell-based. To be noted: HEK293 NFKB reporter cells expressing human TLR8; read-out: HEK293 hTLR8 EC50. In a few lines:
as §1

Take `CCCN(OCCNC(=O)CC(C)(C)C)C(=O)C1=Cc2sc(CCCCCNC(=O)OC(C)(C)C)cc2N=C(N)C1` [TAZ-150]: the figures for the pEC50 in test [1] and in test [2] were 5.70 and 5.78, respectively.

Take `CCCN(CCCNC(=O)OCc1ccccc1)C(=O)C1=Cc2sc(CCCCCNC(=O)OC(C)(C)C)cc2N=C(N)C1` [TAZ-162]: the pEC50 is 5.91 in test [1] and 5.90 in test [2].

In the case of `CCCN(CCCNC(=O)OC1CCC1)C(=O)C1=Cc2sc(C#CC3CCNCC3)cc2N=C(N)C1` [TAZ-164], the values for the pEC50 in test [1] and in test [2] were 6.32 and 5.41, respectively.

With `CCCN(CCCNC(=O)OC1CCC1)C(=O)C1=Cc2sc(CCC3CCNCC3)cc2N=C(N)C1` [TAZ-166], the pEC50 in test [1] was 6.10; in test [2], 5.43.

In the case of `CCCN(CCCNC(=O)NCC)C(=O)C1=Cc2sc(CCCCCNC(=O)OC(C)(C)C)cc2N=C(N)C1` [TAZ-170], the pEC50 is 6.55 in test [1] and 5.47 in test [2].

In the case of `CCCN(CCCNC(=O)OC1CCC1)C(=O)C1=Cc2sc(CN)cc2N=C(N)C1` [TAZ-171], the results for the pEC50 in test [1] and in test [2] were 5.28 and 5.50, respectively.

For `CCCN(CCCNC(=O)OC1CCC1)C(=O)C1=Cc2sc(-c3cn[nH]c3)cc2N=C(N)C1` [TAZ-172], the pEC50 is 6.82 in test [1] and 5.43 in test [2].

On to `CCCN(OCC)C(=O)C1=Cc2sc(C#CC3CCNCC3)cc2N=C(N)C1` [TAZ-174], for which the pEC50 was 5.24 in test [1] and 5.78 in test [2].

On to `CCCN(OCC)C(=O)C1=Cc2sc(CCC3CCN(C(=O)OC(C)(C)C)CC3)cc2N=C(N)C1` [TAZ-175], for which the pEC50 in test [1] was 5.38; in test [2], 6.32.

Regarding `CCCN(OCC)C(=O)C1=Cc2sc(CCC3CCNCC3)cc2N=C(N)C1` [TAZ-176, 5-amino-N-ethoxy-2-[2-(4-piperidyl)ethyl]-N-propyl-6H-thieno[3,2-b]azepine-7-carboxamide], the pEC50 in test [1] was 6.04; in test [2] it was 6.60.

`CCCN(CCCNC(=O)OC1CCC1)C(=O)C1=Cc2sc(CC3CCN(C(=O)OC(C)(C)C)CC3)cc2N=C(N)C1` [TAZ-177]: the pEC50 in test [1] is 6.05; in test [2] it was 5.47.

For the molecule `CCCN(OCC)C(=O)C1=Cc2sc(CC3CCNCC3)cc2N=C(N)C1` [TAZ-178], the pEC50 was 6.15 in test [1] and 6.91 in test [2].

For `CCCN(CCCNC(=O)OC1CCC1)C(=O)C1=Cc2sc(CC3CN(C(=O)OC(C)(C)C)C3)cc2N=C(N)C1` [TAZ-182], the figures for the negative logarithm of the EC50 (pEC50) in test [1] and in test [2] were 7.00 and 6.08, respectively.

As for `CCCN(OCC)C(=O)C1=Cc2sc(CC3CNC3)cc2N=C(N)C1` [TAZ-183, 5-amino-2-(azetidin-3-ylmethyl)-N-ethoxy-N-propyl-6H-thieno[3,2-b]azepine-7-carboxamide], the values for the pEC50 in test [1] and in test [2] were 5.45 and 6.31, respectively.

On to `CCCN(OCC)C(=O)C1=Cc2sc(CC3CN(C(=O)OC(C)(C)C)C3)cc2N=C(N)C1` [TAZ-184], for which the figures for the pEC50 in test [1] and in test [2] were 6.04 and 6.03, respectively.

As to `CCCN(CCCNC(=O)OC1CCC1)C(=O)C1=Cc2sc(CN3Cc4ccc(NC(=O)CCN)cc4C3)cc2N=C(N)C1` [TAZ-189], the figures for the pEC50 in test [1] and in test [2] were 5.24 and 5.47, respectively.

For `CCCN(CCCNC(=O)OC1CCC1)C(=O)C1=Cc2sc(CN3CCC(Nc4ccc(CN)cc4)C3)cc2N=C(N)C1` (centres unmarked) [TAZ-190], the values for the pEC50 in test [1] and in test [2] were 5.52 and 5.32, respectively.

As to `CCCN(CCCNC(=O)OC1CCC1)C(=O)C1=Cc2sc(C#CC3CNC3)cc2N=C(N)C1` [TAZ-192], the pEC50 is 6.08 in test [1] and 5.46 in test [2].

For the molecule `CCCN(OCC)C(=O)C1=Cc2sc(C#CC3CNC3)cc2N=C(N)C1` [TAZ-193], the pEC50 in test [1] was 5.47; in test [2] it was 5.82.

With `CCCN(OCC)C(=O)C1=Cc2sc(CCC3CN(C(=O)OC(C)(C)C)C3)cc2N=C(N)C1` [TAZ-194], the figures for the pEC50 in test [1] and in test [2] were 6.33 and 6.20, respectively.

For the molecule `CCCN(OCC)C(=O)C1=Cc2sc(CCC3CNC3)cc2N=C(N)C1` [TAZ-195], the pEC50 is 5.18 in test [1] and 6.02 in test [2].

Regarding `CCCN(OCC)C(=O)C1=Cc2sc(CCC3(O)CN(C(=O)OC(C)(C)C)C3)cc2N=C(N)C1` [TAZ-199], the pEC50 in test [1] is 7.51; in test [2] it was 5.79.

With `CCCN(OCC)C(=O)C1=Cc2sc(CCC3(O)CNC3)cc2N=C(N)C1` [TAZ-200], the pEC50 is 5.54 in test [1] and 5.39 in test [2].

As for `CCCN(OCC)C(=O)C1=Cc2sc(CN3Cc4ccc(NC(=O)CCNC(=O)OC(C)(C)C)cc4C3)cc2N=C(N)C1` [TAZ-202], the negative logarithm of the EC50 (pEC50) is 5.43 in test [1] and 5.86 in test [2].

Take `CCCN(CCCNC(=O)OC1CCC1)C(=O)C1=Cc2sc(CNC(=O)c3ccccc3)cc2N=C(N)C1` [TAZ-203]: the pEC50 in test [1] and in test [2] was 5.49 each time.

As to `CCCN(CCCNC(=O)OC1CCC1)C(=O)C1=Cc2sc(CNC(=O)Cc3ccccc3)cc2N=C(N)C1` [TAZ-204], the values for the pEC50 in test [1] and in test [2] were 5.57 and 5.59, respectively.

With `CCCN(OCC)C(=O)C1=Cc2sc(CN3CC4(C3)CN(C(=O)OC(C)(C)C)C4)cc2N=C(N)C1` [TAZ-208], the results for the pEC50 in test [1] and in test [2] were 5.44 and 5.07, respectively.

Consider `CCCN(OCC)C(=O)C1=Cc2sc(CN3CC(CNC(=O)OC(C)(C)C)C3)cc2N=C(N)C1` [TAZ-210], for which the pEC50 is 5.81 in test [1] and 5.53 in test [2].

For `CCCN(OCC)C(=O)C1=Cc2sc(CN3CC(C(=O)OC(C)(C)C)C3)cc2N=C(N)C1` [TAZ-212], the pEC50 in test [1] was 5.90; in test [2], 5.59.

Take `CCCN(OCC)C(=O)C1=Cc2sc(CN3CC4(C3)CN(c3ccc(C)cc3)C4)cc2N=C(N)C1` [TAZ-219]: the figures for the pEC50 in test [1] and in test [2] were 5.50 and 6.07, respectively.

Consider `CCCN(OCC)C(=O)C1=Cc2sc(-c3cn[nH]c3)cc2N=C(N)C1` [TAZ-221], for which the pEC50 in test [1] is 5.21; in test [2], 5.17.

`CCCN(OCC)C(=O)C1=Cc2sc(CN3CCC(C(=O)OC)CC3)cc2N=C(N)C1` [TAZ-222]: the figures for the pEC50 in test [1] and in test [2] were 5.31 and 5.55, respectively.

For the molecule `CCCN(OCC)C(=O)C1=Cc2sc(CN3CCC[C@@H](C(=O)OC)C3)cc2N=C(N)C1` [TAZ-223], the pEC50 in test [1] is 5.42; in test [2] it was 5.50.

For the molecule `CCCN(OCC)C(=O)C1=Cc2sc(CN3CCNC(=O)C3)cc2N=C(N)C1` [TAZ-224], the pEC50 in test [1] was 5.47; in test [2] it was 5.56.

Consider `CCCN(OCC)C(=O)C1=Cc2sc(CN3CCCNCC3)cc2N=C(N)C1` [TAZ-225], for which the pEC50 in test [1] was 5.59; in test [2], 5.92.

For the molecule `CCCN(OCC)C(=O)C1=Cc2sc(CN3CCCN(C(=O)OC(C)(C)C)CC3)cc2N=C(N)C1` [TAZ-226], the pEC50 was 6.36 in test [1] and 5.35 in test [2].

Turning to `CCCN(OCC)C(=O)C1=Cc2sc(CN3CC[C@H]4NC[C@H]4C3)cc2N=C(N)C1` [TAZ-227], the pEC50 in test [1] was 5.36; in test [2], 5.64.

Broadly, the pEC50 is the negative decadic logarithm of the EC50, by convention in mol/L.
